Patent publication US12070444B2, “Modulation of molecular markers using S-equol” (Board of Regents, The University of Texas System, priority 2020, dated 2024)

How the values were obtained:
[1] = tested on: E0771 mammary tumor cell line; assay: E0771 mammary tumor challenge in mice treated with S-equol and/or anti-PD-1 antibody; assay type: in vivo, mouse; settings: E0771 mammary tumor model, Example 14, four arms (FIG. 33A-B)
Procedure: (§1) The following three murine mammary tumor lines were tested to determine the effects of a PD-1 inhibitor, S-equol and a combination of the two therapies on tumor growth: (1) E0771 (B6 background), (2) AT-3 (B6 background), and (3) 4T1 (BalbC background). This experimental design includes four arms (using AT-3 as an example): (1) controls, (2) αPD-1, (3) S-equol, and (4) αPD-1+S-equol (FIG. 3) by injecting into mice 2×10^5 cells subcutaneously into the 4th mammary gland fat pad. Antibodies were administered α-PD-1: 200 μg/mice by i.p. injection every 3 days and S-equol was administered at 50 mg/kg/day by oral gavage. Treatment began 7 day after tumor challenge. Tumor growth trajectories were compared within treated mice using a repeated measures linear mixed model. The primary outcome was the logarithm of the tumor size, and the test statistic is the treatment×time interaction. Tumors were measured about 10 times. The number of recipient mice use used in the studies (n=8 per group) was based on the above study.
For tumor studies, 8 to 10-week-old mice were used. M-Wnt (5 Å˜10^5 cells), E0771 (5 Å˜10^5 cells), AT-3 (2 Å˜10^5 cells), and EMT-6 (5 Å˜10^5 cells) tumor cells were subcutaneously inoculated into the fourth mammary pad. […] Tumor volume was measured with calipers (0.5 Å˜length Å˜width2) on the indicated days. […]

[2] = tested on: B16 melanoma tumor cell line; assay: B16 melanoma tumor challenge in mice treated with S-equol and/or anti-PD-1 antibody; assay type: in vivo, mouse
Procedure: FIG. 4. A schema for combination therapy. Mice were administered one of: (1) vehicle+rat IgG2a; (2) S-equol+rat IgG2a; (3) vehicle+anti-PD-1 antibody; or (4) S-equol+anti-PD-1 antibody. Mice receiving anti-PD-1 antibody were given 250 μg every 3 days, intraperitoneally, and mice receiving S-equol were given 50 mg/kg per day by oral gavage. Treatment started 7 days after tumor challenge with B16 melanoma.
Melanoma cell line B16 was tested to determine the effects of a PD-1 inhibitor, S-equol and a combination of the two therapies on tumor growth. This experimental design includes four arms: (1) controls, (2) αPD-1, (3) S-equol, and (4) αPD-1+S-equol (FIG. 4) by injecting into mice 5×10^5 cells subcutaneously. Antibodies were administered α-PD-1: 250 μg/mice by i.p. injection every 3 days and S-equol was administered at 50 mg/kg/day by oral gavage. Treatment began 7 day after tumor challenge. Tumor growth trajectories were compared within treated mice using a repeated measures linear mixed model. The primary outcome was the logarithm of the tumor size, and the test statistic is the treatment×time interaction. Tumors were measured about 10 times. The number of recipient mice use used in the studies (n=6 per group) was based on the above study.
(§2) For tumor studies, 8 to 10-week-old mice were used. M-Wnt (5 Å˜10^5 cells), E0771 (5 Å˜10^5 cells), AT-3 (2 Å˜10^5 cells), and EMT-6 (5 Å˜10^5 cells) tumor cells were subcutaneously inoculated into the fourth mammary pad. B16F10 (0.5 Å˜10^6 cells) and MC38 (5 Å˜10^6 cells) tumor cells were subcutaneously inoculated into the back flank. Tumor volume was measured with calipers (0.5 Å˜length Å˜width2) on the indicated days. Anti-IgG2a (BioXcell, Cat: #BE0146) and anti-PD-1 (BioXcell, Cat: #BE0089) antibodies were administered through intraperitoneal (i.p.) injection at a dose of […] every 3 days starting on day 7 after tumor challenge for the duration as indicated. S-equol (from Ausio Pharmaceuticals) was administered daily by oral gavage at 50 mg/kg beginning on the day of tumor challenge and continuing throughout the entire tumor growth experiments.

ERβ = molecular target: T1, ERβ (Mus musculus, UniProt O08537); assay: TCR activated ERβ tyrosine phosphorylation after anti-CD3/CD28 stimulation (IP-Western blot); assay type: cell-based; settings: anti-CD3/CD28-stimulated cells, pretreated with S-equol for 4 hrs (FIG. 26A)
T1 construct: endogenous in cells; b180 instead says mouse 'EF4' (probably EL4) lymphoma cells
T1 sequence (O08537 whole entry): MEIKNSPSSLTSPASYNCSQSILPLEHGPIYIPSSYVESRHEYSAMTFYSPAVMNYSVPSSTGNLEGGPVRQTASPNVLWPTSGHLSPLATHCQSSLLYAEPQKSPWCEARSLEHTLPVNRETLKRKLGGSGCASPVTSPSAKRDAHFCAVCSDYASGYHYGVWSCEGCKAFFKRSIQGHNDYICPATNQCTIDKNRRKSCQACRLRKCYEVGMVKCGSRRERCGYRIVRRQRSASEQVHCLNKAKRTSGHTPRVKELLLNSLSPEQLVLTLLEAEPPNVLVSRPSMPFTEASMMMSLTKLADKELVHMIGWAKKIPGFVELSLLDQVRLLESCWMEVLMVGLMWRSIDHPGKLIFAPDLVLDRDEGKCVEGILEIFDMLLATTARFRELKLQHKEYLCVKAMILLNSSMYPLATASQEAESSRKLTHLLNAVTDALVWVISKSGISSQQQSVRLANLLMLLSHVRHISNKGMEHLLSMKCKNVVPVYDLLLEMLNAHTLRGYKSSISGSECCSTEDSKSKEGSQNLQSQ
Source text: FIG. 26. ERβ agonist S-equol promotes CD8+ T cell activation and antitumor immunotherapy. […] FIGS. 26B and 26C show B16 melanoma growth and tumor weight from wild type C57BL/6J male mice with four arm treatments. Vehicle+α-IgG, 5-equol+α-IgG, Vehicle+α-PD-1, S-equol+α-PD-1. […] Vehicle+α-IgG, S-equol+α-IgG, Vehicle+α-PD-1, S-equol+α-PD-1. GSEA analysis in ERβ-high versus ERβ-low human melanoma TILs (tumor infiltrating lymphocytes). The enrichment of (FIG. 26F) NFAT pathway and (FIG. 26G) TNFα signaling were evaluated.
Cells were stained and sorted as previously described (Clark, 2016), using LSR II and FACSAria hardware and analyzed by FACSDiva (BD Bioscience) and FlowJo software (FlowJo, LLC). CD8+ T cell isolation and in vitro activationCD8+ T cells were isolated from the spleens under aseptic conditions. Individual spleens were homogenized to release splenocytes. […] Single-cell suspensions from individual spleens were pooled, filtered through 70 μm and 40 μm cell strainer (Fisher) and counted. […]
Isolated mouse spleen and bone marrow were lysed in RIPA Lysis and 218 Extraction Buffer. Protein amounts were determined by using Pierce BCA Protein Assay Kits (Pierce, Cat: #23225). […] Proteins were detected with ECL SuperSignal™ West Pico PLUS Chemiluminescent Substrate (Thermo Fisher, Cat. #34580).

[3] = tested on: AT3 mammary tumor cell line; assay: AT3 mammary tumor challenge in mice treated with S-equol and/or anti-PD-1 antibody; assay type: in vivo, mouse
Procedure: as §1, §2

## Oc1ccc([C@H]2COc3cc(O)ccc3C2)cc1 [S-equol]
[1]
  tumor response (volume and weight): responded
[2]; B16 melanoma (FIG. 8A)
  tumor weight: reduce tumor weight compared to control
[2]; B16 melanoma, Example 14, four arms (FIG. 26B-C)
  tumor response (growth and tumor weight): responded
[2]; B16 melanoma, anti-PD-1 250 μg every 3 days i.p., S-equol 50 mg/kg per day oral gavage, over 12 days post-challenge (FIG. 6)
  tumor volume: reduce tumor volume compared to control
[2]; B16 melanoma, anti-PD-1 250 μg every 3 days i.p., S-equol 50 mg/kg per day oral gavage, over 19 days post-challenge (FIG. 7)
  tumor volume: reduce tumor volume compared to control
[2]; B16 melanoma, legend headed over 16 days, text says over 12 days post-challenge (FIG. 9A)
  tumor volume: reduce tumor volume compared to control
ERβ
  TCR activated ERβ tyrosine phosphorylation: further enhanced
[3]; AT3 (FIG. 12B)
  tumor weight: reduce tumor weight compared to control
[3]; AT3, excised tumors (FIG. 12C)
  tumor size: reduce tumor size compared to control
[3]; AT3, anti-PD-1 200 μg every 3 days, S-equol 50 mg/kg per day, over 35 days post-challenge (FIG. 12A)
  tumor volume: reduce tumor volume compared to control
